Assay [1] addresses T1, human ANO1 (abc) (Homo sapiens, UniProt Q5XXA6, DEL476-501).
T1 sequence (Q5XXA6 with tags, fused parts or gaps isoform Q5XXA6-5 DEL539-564): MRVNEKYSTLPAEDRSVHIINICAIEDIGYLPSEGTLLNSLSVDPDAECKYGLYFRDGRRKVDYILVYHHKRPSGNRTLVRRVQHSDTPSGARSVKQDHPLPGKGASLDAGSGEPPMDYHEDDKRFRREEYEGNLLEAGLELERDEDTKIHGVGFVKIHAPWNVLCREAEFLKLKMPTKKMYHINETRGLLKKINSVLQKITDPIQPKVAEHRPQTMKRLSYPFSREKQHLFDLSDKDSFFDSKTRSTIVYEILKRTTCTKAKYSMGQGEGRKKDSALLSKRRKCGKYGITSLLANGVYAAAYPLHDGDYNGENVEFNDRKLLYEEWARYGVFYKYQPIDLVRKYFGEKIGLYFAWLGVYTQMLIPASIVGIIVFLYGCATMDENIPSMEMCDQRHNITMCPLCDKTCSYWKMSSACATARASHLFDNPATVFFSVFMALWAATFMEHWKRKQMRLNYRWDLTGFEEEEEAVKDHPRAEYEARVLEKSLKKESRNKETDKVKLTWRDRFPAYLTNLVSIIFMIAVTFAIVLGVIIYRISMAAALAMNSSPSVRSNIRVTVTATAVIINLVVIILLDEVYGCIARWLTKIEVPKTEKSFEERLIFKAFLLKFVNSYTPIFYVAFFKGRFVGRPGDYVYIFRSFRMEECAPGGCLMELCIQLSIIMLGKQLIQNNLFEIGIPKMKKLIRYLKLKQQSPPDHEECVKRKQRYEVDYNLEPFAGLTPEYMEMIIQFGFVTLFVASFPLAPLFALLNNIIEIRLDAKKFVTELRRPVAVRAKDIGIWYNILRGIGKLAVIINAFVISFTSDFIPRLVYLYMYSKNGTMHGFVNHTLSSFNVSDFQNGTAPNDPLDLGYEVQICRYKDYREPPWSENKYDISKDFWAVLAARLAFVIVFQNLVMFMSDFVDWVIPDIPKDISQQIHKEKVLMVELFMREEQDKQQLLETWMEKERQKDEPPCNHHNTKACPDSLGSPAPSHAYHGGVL
As to the kind of experiment: YFP fluorescence quenching assay (iodide influx) in FRT cells expressing human ANO1. It counts as cell-based. To be noted: for IC50: FRT cells expressing ANO1 and YFP, ATP activation, mean ± S.E., n = 3, read-out: IC50, ANO1 inhibition (YFP fluorescence quenching). The protocol:
Fisher rat thyroid (FRT) cells were stably transfected with human ANO1 (abc) or mouse ANO2 and the halide sensor YFP as described in previous study. FRT cells were cultured in Coon`s modified F12 medium with 10% FBS, 2 mM L-glutamine, 100 units/ml penicillin and 100 μg/ml streptomycin at 37°C and 5% CO2. PC-3 cells were grown in RPMI 1640 medium supplemented with 10% FBS, 100 units/ml penicillin and 100 μg/ml streptomycin at 37°C and 5% CO2. There were populations of PC-3 cells with high and low expression of ANO1. To separate high and low levels of ANO1 expressing PC-3 cells, cells were stably transfected with the halide sensor YFP-H148Q/I152L/F46L and then the cells were plated on 96 well plates at 1 cell per well. After two weeks of incubation, high and low levels of ANO1 expressing PC-3 cells were separated by YFP quenching assay. ANO1 was activated by 100 μM ATP.
ANO1 and YFP expressing FRT cells were plated in 96-well black-walled microplates (Corning Inc., Corning, NY) at a density of 20,000 cells per well. Assays were done using FLUOstar Omega microplate reader (BMG Labtech, Ortenberg, Germany) and MARS Data Analysis Software (BMG Labtech) as described in our previous study. Briefly, each well of 96-well plate was washed 3 times in PBS (200 μL/wash) and test compounds were added to each well at 25 μM final concentration. After 10 minutes incubation at 37°C, 96-well plates were transferred to the plate reader for fluorescence assay. Each well was assayed individually for ANO1-mediated I^- influx by monitoring YFP fluorescence continuously (400 ms per point) for 2 s (baseline), then 140 mM I^- solution containing 200 μM ATP was added at 2 s and then YFP fluorescence was recorded for 6 s. Initial iodide influx rate was determined from the initial slope of fluorescence decrease, by nonlinear regression, following infusion of iodide with ATP.

Assay [2] has as its target T2, ANO1 (Homo sapiens, UniProt Q5XXA6, DEL476-501).
T2 sequence (Q5XXA6 with tags, fused parts or gaps isoform Q5XXA6-5 DEL539-564): T1 sequence (Q5XXA6 with tags, fused parts or gaps isoform Q5XXA6-5 DEL539-564)
As to the kind of experiment: Apical membrane (short-circuit) current in ANO1-expressing FRT cells. The settings on record: for Block of ANO1 chloride channel current: pretreated 20 min, 100 μM ATP, FRT-ANO1 cells. It counts as cell-based. As for the experimental part:
Snapwell inserts containing ANO1-expressing FRT cells were mounted in Ussing chambers (Physiologic Instruments, San Diego, CA). The basolateral bath was filled with HCO3^--buffered solution and the apical bath was filled with a half-Cl^- solution. The basolateral membrane was permeabilized with 250 μg/mL amphotericin B. The cells were bathed for a 20 min stabilization period and aerated with 95% O2 / 5%CO2 at 37°C. Luteolin and kaempferol were applied to the apical and basolateral bath solution and then ATP was added to the apical bath solution to induce intracellular calcium increase. Apical membrane currents were measured with an EVC4000 Multi-Channel V/I Clamp (World Precision Instruments, Sarasota, FL) and recorded using PowerLab 4/35 (AD Instruments, Castle Hill, Australia). Data were collected and analyzed with ADInstruments acquisition software Labchart Pro 7 software. The sampling rate was 4 Hz.

In assay [3] the test system is PC-3 cells. Kind of assay: Intracellular calcium measurement (Fluo-4) in PC-3 cells. It counts as cell-based, human. To be noted: 100 μM ATP. As for the experimental part: Intracellular calcium levels were monitored using Fluo-4 NW calcium assay kit (Invitrogen, Carlsbad, CA) as per the manufacturer's protocol in FRT and PC-3 cells. Briefly, the cells were cultured in a 96 well plate and incubated with 100 μL assay buffer including Fluo-4 NW. After 1 hour incubation, Fluo-4 fluorescence was measured with a FLUOstar Omega microplate reader equipped with syringe pumps and custom Fluo-4 excitation/emission filters (485/538 nm). Intracellular calcium increase was induced by application of 100 μM ATP.
On the technique in general: Calcium flux is commonly read through the fluorescence of an indicator in the cells.

Assay [4] deals with ANO1. As to the kind of experiment: Quantitative real-time PCR of ANO1 mRNA in PC-3 cells. It counts as cell-based, human. The protocol:
Total messenger RNA (mRNA) was extracted by using a TRIzol reagent (Invitrogen, Carlsbad, CA). Quantitative Real-time PCRs were performed using the StepOnePlus Real-Time PCR System (Applied Biosystems, CA) and Thunderbird SYBR qPCR mix (Toyobo, Osaka, Japan). The thermal cycling conditions comprised an initial step at 95°C for 5 minutes followed by 40 cycles at 95°C for 10 seconds, 55°C for 20 seconds, and 72°C for 10 seconds in a 96-well reaction plate. Primers used were as follows: ANO1-sense 5′-GGAGAAGCAGCATCTATTTG-3′, ANO1-antisense 5′ GATCTCATAGACAATCGTGC-3′, β-actin-sense 5′-GCAAAGACCTGTACGCCAACAC-3′ and β-actin-antisense 5′-ATCTCCTTCTGCATCCTGTC-3′. ANO1 mRNA levels were normalized to β-actin levels and the fold-change in gene expression was determined by using 2^-ΔΔCT method. Quantitative PCR experiments were carried out in triplicates.

Structures are written as SMILES. Values joined by “and” are separate entries in the source; they are usually repeats but may differ in a detail not shown here. Identical values can stand only once.

As a reminder, the IC50 is the point on the concentration scale where inhibition reaches its midpoint. Consider `O=c1c(O)c(-c2ccc(O)cc2)oc2cc(O)cc(O)c12` [Kaempferol], for which, in assay [1], the IC50 came out at 14.55 ± 0.03 µM. The “Block of ANO1 chloride channel current” value is 36.2 ± 3.0% in assay [2] (10 μM), 55.0 ± 4.1% in assay [2] (30 μM) and 89.3 ± 2.0% in assay [2] (100 μM). In assay [3], the “Effect on ATP-induced intracellular calcium increase” value is recorded as “did not alter”. Besides, in assay [4] (10 μM), the “Change of ANO1 gene expression levels” value is “slightly increased”.

Take `O=c1cc(-c2ccc(O)c(O)c2)oc2cc(O)cc(O)c12` [luteolin]: in assay [1] (100 μM), the “Block of ATP-induced ANO1 activation (YFP)” value is on record as “almost completely blocked”. Further, the IC50 in assay [1] is 9.37 µM and ~9.4 µM; in assay [2] (FRT cells expressing ANO1, activated by 100 μM ATP, read-out: IC50, ANO1 chloride current (apical membrane current)), 9.8 µM and 9.77 µM and ~10 µM. Also, the “Block of PAR2-AP-triggered ANO1 activation” value in assay [2] (100 μM, 20 min pretreatment, PAR2-AP 50 μM) is reported as “almost completely blocked”. Further, the “Inhibition of ATP-induced ANO1 activation (apical current)” value in assay [2] (100 μM, ATP 100 μM) is “almost completely inhibited”. In assay [2] (after washing 3 times for 5 min each, re-activation by 50 μM PAR2-AP), the “Reversibility of ANO1 inhibition” value is “reversibly inhibited”. Besides, the “Effect on ATP-induced intracellular calcium increase” value in assay [3] is reported as “did not alter”. For the same molecule, the “Change of ANO1 gene expression levels” value is “slightly increased” in assay [4] (10 μM) and “significantly decreased” in assay [4] (30 μM). Moreover, the “Increase of ANO1 mRNA expression levels” value in assay [4] (10 μM) is on record as ~ 1.3 fold.
